The text below walks through data of patent US8012956B2, “Tropane compounds” (Exelixis, Inc., priority 2007, dated 2011).

By IC50 is commonly meant the concentration at which inhibition is half-maximal. A low value points to inhibition by little substance.

Some results are limits rather than exact numbers.

The assay deals with HSP90 (Homo sapiens, UniProt P07900). In words: HSP90 inhibition (HSP90 IC50). The class given is biochemical.
With `COc1cccc(C(=O)NC2CC3CCC(C2)N3c2ccc(C(=O)N[C@@H](C)CO)cn2)c1C` (stereo partly drawn) [N-[(1S)-2-hydroxy-1-methylethyl]-6-[3-endo-({[2-methyl-3-(methyloxy)phenyl]carbonyl}amino)-8-azabicyclo[3.2.1]oct-8-yl]pyridine-3-carboxamide], the IC50 was 1000 to 2000 nM.

On to `COc1cccc(C(=O)NC2CC3CCC(C2)N3c2ccc(C(=O)N[C@@H](C)c3ccc(N4CCN(C)CC4)cc3)cn2)c1C` (stereo partly drawn) [6-[3-endo-({[2-methyl-3-(methyloxy)phenyl]carbonyl}amino)-8-azabicyclo[3.2.1]oct-8-yl]-N-{(1S)-1-[4-(4-methylpiperazin-1-yl)phenyl]ethyl}pyridine-3-carboxamide], for which the IC50 is below 500 nM. `COc1cccc(C(=O)N[C@H]2C[C@H]3CC[C@@H](C2)N3c2ccc(C(=O)NCCCN3CCOCC3)cn2)c1C` [6-[3-endo-({[2-methyl-3-(methyloxy)phenyl]carbonyl}amino)-8-azabicyclo[3.2.1]oct-8-yl]-N-(3-morpholin-4-ylpropyl)pyridine-3-carboxamide] registered a half-maximal inhibitory concentration (IC50) of 500 to 999 nM. As for `COc1cccc(C(=O)N[C@H]2C[C@H]3CC[C@@H](C2)N3c2ccc(C(=O)NCc3ccc(OC(F)(F)F)cc3)cn2)c1C` [6-[3-endo-({[2-methyl-3-(methyloxy)phenyl]carbonyl}amino)-8-azabicyclo[3.2.1]oct-8-yl]-N-({4-[(trifluoromethyl)oxy]phenyl}methyl) pyridine-3-carboxamide], the figure is 2000 to 10000 nM. In turn, `COc1cccc(C(=O)N[C@H]2C[C@H]3CC[C@@H](C2)N3c2ccc(C(=O)NC3CCNCC3)cn2)c1C` [6-[3-endo-({[2-methyl-3-(methyloxy)phenyl]carbonyl}amino)-8-azabicyclo[3.2.1]oct-8-yl]-N-piperidin-4-ylpyridine-3-carboxamide] gave an IC50 below 500 nM.

In turn, `NC(=O)c1ccc(C(=O)N[C@H]2C[C@H]3CC[C@@H](C2)N3c2ccc(C(=O)CCN3CCCC3)cn2)cc1NCC1CC1` [2-[(cyclopropylmethyl)amino]-N4-{8-[5-(3-pyrrolidin-1-ylpropanoyl)pyridin-2-yl]-8-azabicyclo[3.2.1]oct-3-endo-yl}benzene-1,4-dicarboxamide] displayed an IC50 below 500 nM. Compound `COc1cccc(C(=O)NC2CC3CCC(C2)N3c2ccc(C(=O)NCCC3CCCN3C)cn2)c1C` (stereo not drawn) [6-[3-endo-({[2-methyl-3-(methyloxy)phenyl]carbonyl}amino)-8-azabicyclo[3.2.1]oct-8-yl]-N-[2-(1-methylpyrrolidin-2-yl)ethyl]pyridine-3-carboxamide] yielded a concentration for half-maximal inhibition (IC50) of 500 to 999 nM. As for `CCC(CC)Nc1cc(C(=O)NC2CC3CCC(C2)N3c2ccc(C(=O)N[C@@H]3CCN(C(C)C)C3)cn2)ccc1C(N)=O` (stereo partly drawn) [2-[(1-ethylpropyl)amino]-N4-{8-[5-({[(3R)-1-(1-methylethyl)pyrrolidin-3-yl]amino}carbonyl)pyridin-2-yl]-8-azabicyclo[3.2.1]oct-3-endo-yl}benzene-1,4-dicarboxamide], the figure is below 500 nM; as for `COc1cccc(C(=O)N[C@H]2C[C@H]3CC[C@@H](C2)N3c2ccc(C(N)=O)cn2)c1C` [6-[3-endo-({[2-methyl-3-(methyloxy)phenyl]carbonyl}amino)-8-azabicyclo[3.2.1]oct-8-yl]pyridine-3-carboxamide], 500 to 999 nM. As for `Cc1cc(C(=O)N[C@H]2C[C@H]3CC[C@@H](C2)N3c2ccc(C(=O)NC3CN(C(C)C)C3)cn2)c(C)cc1C(N)=O` [2,5-dimethyl-N-{8-[5-({[1-(1-methylethyl)azetidin-3-yl]amino}carbonyl)pyridin-2-yl]-8-azabicyclo[3.2.1]oct-3-endo-yl}benzene-1,4-dicarboxamide], the figure is below 500 nM; as for `COc1cccc(C(=O)N[C@H]2C[C@H]3CC[C@@H](C2)N3c2ccc(C(=O)NCc3ccc(C4CCN(C)CC4)cc3)cn2)c1C` [6-[3-endo-({[2-methyl-3-(methyloxy)phenyl]carbonyl}amino)-8-azabicyclo[3.2.1]oct-8-yl]-N-{[4-(1-methylpiperidin-4-yl)phenyl]methyl}pyridine-3-carboxamide], below 500 nM.

As to `CCC(CC)Nc1cc(C(=O)NC2CC3CCC(C2)N3c2ccc(C(=O)N[C@@H]3CCN(CC)C3)cn2)ccc1C(N)=O` (stereo partly drawn) [2-[(1-ethylpropyl)amino]-N4-{8-[5-({[(3R)-1-ethylpyrrolidin-3-yl]amino}carbonyl)pyridin-2-yl]-8-azabicyclo[3.2.1]oct-3-endo-yl}benzene-1,4-dicarboxamide], the half-inhibitory concentration (IC50) was below 500 nM. For the compound `CC(=O)c1ccc(N2[C@@H]3CC[C@H]2C[C@@H](NC(=O)c2ccc(C(N)=O)c(NC4CCNC4)c2)C3)nc1` (stereo partly drawn) [N4-[8-(5-acetylpyridin-2-yl)-8-azabicyclo[3.2.1]oct.3-endo-yl]-2-(pyrrolidin-3-ylamino)benzene-1,4-dicarboxamide], the IC50 is below 500 nM. For `COc1cccc(C(=O)N[C@H]2C[C@H]3CC[C@@H](C2)N3c2ccc(C(=O)NC3CCN(C)CC3)cn2)c1C` [6-[3-endo-({[2-methyl-3-(methyloxy)phenyl]carbonyl}amino)-8-azabicyclo[3.2.1]oct-8-yl]-N-(1-methylpiperidin-4-yl)pyridine-3-carboxamide] the value was 500 to 999 nM. As for `COc1cccc(C(=O)N[C@H]2C[C@H]3CC[C@@H](C2)N3c2ccc(C(N)=O)cn2)c1CCCO` [6-[3-endo-({[2-(3-hydroxypropyl)-3-(methyloxy)phenyl]carbonyl}amino)-8-azabicyclo[3.2.1]oct-8-yl]pyridine-3-carboxamide], the IC50 fell in the range of 1000 to 2000 nM. With `CC(=O)c1ccc(N2[C@@H]3CC[C@H]2C[C@@H](NC(=O)c2ccc(C(N)=O)c(NC4CCCC4)c2)C3)nc1` [N4-[8-(5-acetylpyridin-2-yl)-8-azabicyclo[3.2.1]oct-3-endo-yl]-2-(cyclopentylamino)benzene-1,4-dicarboxamide], the 50% inhibitory concentration (IC50) was below 500 nM. For `COC[C@H](C)NC(=O)c1ccc(N2C3CCC2CC(NC(=O)c2cccc(OC)c2C)C3)nc1` (stereo partly drawn) [N-[(1S)-1-methyl-2-(methyloxy)ethyl]-6-[3-endo-({[2-methyl-3-(methyloxy)phenyl]carbonyl}amino)-8-azabicyclo[3.2.1]oct-8-yl]pyridine-3-carboxamide] the value was 1000 to 2000 nM. `CCC(CC)Nc1cc(C(=O)NC2CC3CCC(C2)N3c2ccc(C(=O)N[C@@H]3CCCN(C(C)C)C3)cn2)c(C)cc1C(N)=O` (stereo partly drawn) [5-[(1-ethylpropyl)amino]-2-methyl-N-{8-[5-({[(3R)-1-(1-methylethyl)piperidin-3-yl]amino}carbonyi)pyridin-2-yl]-8-azabicyclo[3.2.1]oct-3-endo-yl}benzene-1,4-dicarboxamide] registered an IC50 below 500 nM. As for `COc1cccc(C(=O)N[C@H]2C[C@H]3CC[C@@H](C2)N3c2ccc(C(=O)NCc3cccc(Cl)c3)cn2)c1C` [N-[(3-chlorophenyl)methyl]-6-[3-endo-({[2-methyl-3-(methyloxy)phenyl]carbonyl}amino) 8-azabicyclo[3.2.1]oct-8-yl]pyridine-3-carboxamide], the figure is 2000 to 10000 nM. For `Cc1cc(C(N)=O)c(N[C@H]2CCOC2)cc1C(=O)NC1CC2CCC(C1)N2c1ccc(C(=O)C2CC2)cn1` (stereo partly drawn) [N-{8-[5-(cyclopropylcarbonyl)pyridin-2-yl]-8-azabicyclo[3.2.1]oct-3-endo-yl}-2-methyl-5-[(3S)-tetrahydrofuran-3-ylamino]benzene-1,4-dicarboxamide], the IC50 was below 500 nM. For `CCC(C)Nc1cc(C(=O)N[C@H]2C[C@H]3CC[C@@H](C2)N3c2ccc(C(C)=O)cn2)ccc1C(N)=O` (stereo partly drawn) [N4-[8-(5-acetylpyridin-2-yl)-8-azabicyclo[3.2.1]oct-3-endo-yl]-2-((1-methylpropyl)amino]benzene-1,4-dicarboxamide] the value was below 500 nM.

For `Cc1cc(C(=O)N[C@H]2C[C@H]3CC[C@@H](C2)N3c2ccc(C(=O)NC3CN(C)C3)cn2)c(C)cc1C(N)=O` [2,5-dimethyl-N-[8-(5-{[(1-methylazetidin-3-yl)amino]carbonyl}pyridin-2-yl)-8-azabicyclo[3.2.1]oct-3-endo-yl]benzene-1,4-dicarboxamide], the IC50 was below 500 nM. For `Cc1cnc(CNC(=O)c2ccc(N3[C@@H]4CC[C@H]3C[C@@H](NC(=O)c3ccc(C(N)=O)cc3)C4)nc2)cn1` [N-{8-[5-({[(5-methylpyrazin-2-yl)methyl]amino}carbonyl)pyridin-2-yl]-8-azabicyclo[3.2.1]oct-3-endo-yl}benzene-1,4-dicarboxamide] the value was 1000 to 2000 nM; for `COc1cccc(C(=O)N[C@H]2C[C@H]3CC[C@@H](C2)N3c2ccc(C(=O)Nc3cc(C)cc(C)c3)cn2)c1C` [N-(3,5-dimethylphenyl)-6-[3-endo-({[2-methyl-3-(methyloxy)phenyl]carbonyl}amino)-8-azabicyclo[3.2.1]oct-8-yl]pyridine-3-carboxamide], 2000 to 10000 nM.

`COc1ccc(CCNC(=O)c2ccc(N3[C@@H]4CC[C@H]3C[C@@H](NC(=O)c3cccc(OC)c3C)C4)nc2)cc1OC` [N-{2-[3,4-bis(methyloxy)phenyl]ethyl}-6-[3-endo-({[2-methyl-3-(methyloxy)phenyl]carbonyl}amino)-8-azabicyclo[3.2.1]oct-8-yl]pyridine-3-carboxamide] showed an IC50 of 2000 to 10000 nM.

`Cc1cc(C(N)=O)c(NC(C)CC(F)(F)F)cc1C(=O)N[C@H]1C[C@H]2CC[C@@H](C1)N2c1ccc(C(=O)C2CC2)cn1` (stereo partly drawn) [N-{8-[5-(cyclopropylcarbonyl)pyridin-2-yl]-8-azabicyclo[3.2.1]oct-3-endo-yl}-2-methyl-5-[(3,3,3-trifluoro-1-methylpropyl)amino]benzene-1,4-dicarboxamide]: the half-maximal inhibitory concentration (IC50) was below 500 nM.

For the compound `CCN(CC)CCOc1ccc(CNC(=O)c2ccc(N3[C@@H]4CC[C@H]3C[C@@H](NC(=O)c3cccc(OC)c3C)C4)nc2)cc1` [N-[(4-{[2-(diethylamino)ethyl]oxy}phenyl)methyl]-6-[3-endo-({[2-methyl-3-(methyloxy)phenyl]carbonyl}amino)-8-azabicyclo[3.2.1]oct-8-yl]pyridine-3-carboxamide], the IC50 is below 500 nM. For `CCC(CC)Nc1cc(C(=O)N[C@H]2C[C@H]3CC[C@@H](C2)N3c2ccc(C(C)=O)cn2)c(F)cc1C(N)=O` [N-[8-(5-acetylpyridin-2-yl)-8-azabicyclo[3.2.1]oct-3-endo-yl]-5-[(1-ethylpropyl)amino]-2-fluorobenzene-1,4-dicarboxamide] the value was below 500 nM.
